Experimental data as given in patent US10144742B2 (Millennium Pharmaceuticals, Inc., priority 2014, dated 2018).
Read-outs that look alike come from different tables or passages of the source.

Assays:
hNAMPT protein = hNAMPT protein (Homo sapiens (Human), UniProt P43490); assay: NAMPT enzyme assay (TR-FRET/HTRF, BodiPY ligand, anti 6His-Tb); type: binding; details: for inhibition at 1 µM: read-out: Percent Inhibition
Outline: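 Compound or DMSO was incubated for 1 h at room temperature, protected from light, with BodiPY ligand and hNAMPT labelled by terbium anti-6His antibody. The 520 nm to 486 nm emission ratio after 320 nm excitation gave inhibition versus vehicle, from which concentration-response curves yielded IC50.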

PC3 cells = assay: PC3 growth inhibition (Cell-titer glo, 72 hours); type: cell-based; details: Homo sapiens, read-out: Percent Inhibition (PC3 growth inhibition); for inhibition at 1.667 µM: compound concentration 1.667 μM
Outline: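 Compounds in AIM serum-free medium were applied for 72 h at 37 °C, 5% CO2 to PC3 cells plated overnight from RPMI1640 culture. Luminescence after 10 min CellTiter-Glo, normalised to DMSO, gave % viability at 1 μM or 1.667 μM, or GI50/LD50.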

[1] = NAMPT IC50 range class, read-out: IC50
[2] = PC-3, PC3 cells, 72 hours, Cell-titer glo
[3] = PC-3, compound concentration 1 μM, PC3 cells, 72 hours, Cell-titer glo

Chain of hNAMPT protein (P43490 whole entry): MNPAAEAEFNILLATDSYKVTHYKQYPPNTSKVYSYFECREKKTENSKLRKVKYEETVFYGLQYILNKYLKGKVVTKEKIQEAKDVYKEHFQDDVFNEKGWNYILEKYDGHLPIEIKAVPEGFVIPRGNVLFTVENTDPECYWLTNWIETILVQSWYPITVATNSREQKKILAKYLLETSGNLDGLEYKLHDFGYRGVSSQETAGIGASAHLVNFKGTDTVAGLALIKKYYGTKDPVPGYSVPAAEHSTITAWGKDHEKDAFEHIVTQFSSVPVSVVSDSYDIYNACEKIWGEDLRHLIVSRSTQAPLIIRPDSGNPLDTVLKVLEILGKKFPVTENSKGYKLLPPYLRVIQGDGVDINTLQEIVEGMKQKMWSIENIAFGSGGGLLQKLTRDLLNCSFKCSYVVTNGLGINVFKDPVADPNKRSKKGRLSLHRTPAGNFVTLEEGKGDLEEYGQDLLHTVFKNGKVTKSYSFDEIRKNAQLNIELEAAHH

Compound: O=C(NCc1ccc2[nH]ncc2c1)c1ccc2nc(N3CCCCC3)c(-c3ccc(F)cc3)nc2c1 [Compound I-220, 3-(4-Fluorophenyl)-N-(1H-indazol-5-ylmethyl)-2-(piperidin-1-yl)quinoxaline-6-carboxamide]
- IC50 (hNAMPT protein; [1]): 100 to 500 nM
- inhibition at 1 µM (hNAMPT protein): 68%
- inhibition at 1.667 µM (PC3 cells; [2]): 4%

Compound: O=C(NCCOc1cccnc1)c1ccc2nc(N3CCC(N4CCOCC4)CC3)c(-c3ccc(F)cc3)nc2c1 [Compound I-221, 3-(4-fluorophenyl)-2-[4-(morpholin-4-yl)piperidin-1-yl]-N-[2-(pyridin-3-yloxy)ethyl]quinoxaline-6-carboxamide]
- IC50 (hNAMPT protein; [1]): < 100 nM
- inhibition at 1 µM (hNAMPT protein; compound concentration 1 μM): > 99%
- inhibition at 1.667 µM (PC3 cells; [2]): 2%

Compound: CC(C)Oc1nc2ccc(C(=O)NCCCc3ncc[nH]3)cc2nc1-c1ccc(Cl)cc1 [Compound I-222, 3-(4-chlorophenyl)-N-[3-(1H-imidazol-2-yl)propyl]-2-isopropoxyquinoxaline-6-carboxamide]
- IC50 (hNAMPT protein; [1]): < 100 nM
- inhibition at 1 µM (hNAMPT protein; compound concentration 1 μM): 92%
- inhibition at 1.667 µM (PC3 cells; [2]): 12%

Compound: CC(=O)Nc1ccc(-c2nc3cc(C(=O)NCCCn4ccnc4)ccc3nc2-c2ccccc2)cc1 [Compound I-223, 3-(4-acetamidophenyl)-N-[3-(1H-imidazol-1-yl)propyl]-2-phenylquinoxaline-6-carboxamide]
- IC50 (hNAMPT protein; [1]): 2000 to 10000 nM
- inhibition at 1 µM (hNAMPT protein; compound concentration 1 μM): 10%
- inhibition at 1 µM (PC3 cells; [3]): 103%

Compound: O=C(NCCCn1ccnc1)c1ccc2nc(-c3ccccc3)c(-c3cccc(Cl)c3)nc2c1 [Compound I-224, 3-(3-chlorophenyl)-N-[3-(1H-imidazol-1-yl)propyl]-2-phenylquinoxaline-6-carboxamide]
- IC50 (hNAMPT protein; [1]): 100 to 500 nM
- inhibition at 1 µM (hNAMPT protein; compound concentration 1 μM): 74%
- inhibition at 1 µM (PC3 cells; [3]): 1%

Compound: O=C(c1ccc2nc(-c3ccc(F)cc3)c(-c3ccc(F)cc3)nc2c1)N1CCc2[nH]ncc2C1 [Compound I-225, [2,3-bis(4-fluorophenyl)quinoxalin-6-yl](1,4,6,7-tetrahydro-5H-pyrazolo[4,3-c]pyridin-5-yl)methanone]
- IC50 (hNAMPT protein; [1]): 2000 to 10000 nM
- inhibition at 1 µM (hNAMPT protein; compound concentration 1 μM): 14%
- inhibition at 1 µM (PC3 cells; [3]): 91%

Compound: COC1CCN(c2nc3ccc(C(=O)NCCCn4ccnc4)cc3nc2-c2ccccc2)C1 (stereo not drawn) [Compound I-226, N-[3-(1H-imidazol-1-yl)propyl]-2-(3-methoxypyrrolidin-1-yl)-3-phenylquinoxaline-6-carboxamide]
- IC50 (hNAMPT protein; [1]): 100 to 500 nM
- inhibition at 1 µM (hNAMPT protein; compound concentration 1 μM): 70%
- inhibition at 1 µM (PC3 cells; [3]): -7%

Compound: O=C(NCCCn1ccnc1)c1ccc2nc(-c3ccccc3)c(-c3ccc4cc[nH]c4c3)nc2c1 [Compound I-227, N-[3-(1H-imidazol-1-yl)propyl]-3-(1H-indol-6-yl)-2-phenylquinoxaline-6-carboxamide]
- IC50 (hNAMPT protein; [1]): 500 to 1000 nM
- inhibition at 1 µM (hNAMPT protein; compound concentration 1 μM): 68%
- inhibition at 1 µM (PC3 cells; [3]): 1%

Compound: CCOc1cccc(-c2nc3ccc(C(=O)NCCCn4ccnc4)cc3nc2-c2ccccc2)c1 [Compound I-228, 2-(3-ethoxyphenyl)-N-[3-(1H-imidazol-1-yl)propyl]-3-phenylquinoxaline-6-carboxamide]
- IC50 (hNAMPT protein; [1]): 100 to 500 nM
- inhibition at 1 µM (hNAMPT protein; compound concentration 1 μM): 80%
- inhibition at 1 µM (PC3 cells; [3]): -8%

Compound: O=C(NCCCc1ccncc1)c1ccc2nc(-c3ccc(F)cc3)c(-c3ccc(F)cc3)nc2c1 [Compound I-229, 2,3-bis(4-fluorophenyl)-N-[3-(pyridin-4-yl)propyl]quinoxaline-6-carboxamide]
- IC50 (hNAMPT protein; [1]): 100 to 500 nM
- inhibition at 1 µM (hNAMPT protein; compound concentration 1 μM): 73%
- inhibition at 1 µM (PC3 cells; [3]): 95%

Compound: O=C(NCCCn1ccnc1)c1ccc2nc(C3=CCCC3)c(-c3ccccc3)nc2c1 [Compound I-230, 2-(cyclopent-1-en-1-yl)-N-[3-(1H-imidazol-1-yl)propyl]-3-phenylquinoxaline-6-carboxamide]
- IC50 (hNAMPT protein; [1]): 500 to 1000 nM
- inhibition at 1 µM (hNAMPT protein; compound concentration 1 μM): 62%
- inhibition at 1 µM (PC3 cells; [3]): -7%

Compound: CC(C)(C)OC(=O)NCC1(O)CCN(C2CCN(c3nc4ccc(C(=O)NCCCn5ccnc5)cc4nc3-c3ccccc3)CC2)CC1 [Compound I-231, tert-Butyl {[4-hydroxy-1′-(6-{[3-(1H-imidazol-1-yl)propyl]carbamoyl}-3-phenylquinoxalin-2-yl)-1,4′-bipiperidin-4-yl]methyl}carbamate]
- IC50 (hNAMPT protein; [1]): < 100 nM
- inhibition at 1 µM (hNAMPT protein; compound concentration 1 μM): 95%
- inhibition at 1 µM (PC3 cells; [3]): -2%

Compound: O=C(NCCCc1ncc[nH]1)c1ccc2nc(N3CCCCC3)c(-c3ccc(F)cc3)nc2c1 [Compound I-232, 3-(4-fluorophenyl)-N-[3-(1H-imidazol-2-yl)propyl]-2-(piperidin-1-yl)quinoxaline-6-carboxamide]
- IC50 (hNAMPT protein; [1]): < 100 nM
- inhibition at 1 µM (hNAMPT protein; compound concentration 1 μM): > 99%
- inhibition at 1.667 µM (PC3 cells; [2]): 2%

Compound: O=C(NCCCn1ccnc1)c1ccc2nc(Nc3ccccc3)c(-c3ccccc3)nc2c1 [Compound I-233, 2-Anilino-N-[3-(1H-imidazol-1-yl)propyl]-3-phenylquinoxaline-6-carboxamide]
- IC50 (hNAMPT protein): 2000 to 10000 nM
- inhibition at 1 µM (hNAMPT protein): 43%
- inhibition at 1 µM (PC3 cells; PC-3, 72 h): -8%

Compound: Cn1ccnc1CCCNC(=O)c1ccc2nc(-c3ccc(F)cc3)c(-c3ccc(F)cc3)nc2c1 [Compound I-234, 2,3-bis(4-fluorophenyl)-N-[3-(1-methyl-1H-imidazol-2-yl)propyl]quinoxaline-6-carboxamide]
- IC50 (hNAMPT protein; [1]): < 100 nM
- inhibition at 1 µM (hNAMPT protein; compound concentration 1 μM): 100%
- inhibition at 1 µM (PC3 cells; [3]): 41%

Compound: NC(=O)c1cccc(-c2nc3ccc(C(=O)NCCCn4ccnc4)cc3nc2-c2ccccc2)c1 [Compound I-235, 2-(3-carbamoylphenyl)-N-[3-(1H-imidazol-1-yl)propyl]-3-phenylquinoxaline-6-carboxamide]
- IC50 (hNAMPT protein; [1]): 100 to 500 nM
- inhibition at 1 µM (hNAMPT protein; compound concentration 1 μM): 79%
- inhibition at 1 µM (PC3 cells; [3]): -8%

Compound: O=C(NCCCn1ccnc1)c1ccc2nc(-c3ccccc3)c(-c3cccs3)nc2c1 [Compound I-236, N-[3-(1H-imidazol-1-yl)propyl]-2-phenyl-3-(2-thienyl)quinoxaline-6-carboxamide]
- IC50 (hNAMPT protein; [1]): < 100 nM
- inhibition at 1 µM (hNAMPT protein; compound concentration 1 μM): 99%
- inhibition at 1 µM (PC3 cells; [3]): 1%

Compound: O=C(NCCn1cncn1)c1ccc2nc(-c3ccc(F)cc3)c(-c3ccc(F)cc3)nc2c1 [Compound I-237, 2,3-bis(4-fluorophenyl)-N-[2-(1H-1,2,4-triazol-1-yl)ethyl]quinoxaline-6-carboxamide]
- IC50 (hNAMPT protein; [1]): 2000 to 10000 nM
- inhibition at 1 µM (hNAMPT protein; compound concentration 1 μM): 21%
- inhibition at 1 µM (PC3 cells; [3]): 96%

Compound: O=C(NCCc1cn2c(n1)SCC2)c1ccc2nc(-c3ccc(F)cc3)c(-c3ccc(F)cc3)nc2c1 [Compound I-238, N-[2-(2,3-dihydroimidazo[2,1-b][1,3]thiazol-6-yl)ethyl]-2,3-bis(4-fluorophenyl)quinoxaline-6-carboxamide]
- IC50 (hNAMPT protein; [1]): 2000 to 10000 nM
- inhibition at 1 µM (hNAMPT protein; compound concentration 1 μM): 19%
- inhibition at 1 µM (PC3 cells; [3]): 96%

Compound: CC(C)(C)OC(=O)N1CCC(C2CCN(c3nc4ccc(C(=O)NCCn5ccnc5)cc4nc3-c3ccccc3)CC2)CC1 [Compound I-239, tert-Butyl 1′-(6-{[2-(1H-imidazol-1-yl)ethyl]carbamoyl}-3-phenylquinoxalin-2-yl)-4,4′-bipiperidine-1-carboxylate]
- IC50 (hNAMPT protein; [1]): 2000 to 10000 nM
- inhibition at 1 µM (hNAMPT protein; compound concentration 1 μM): 25%
- inhibition at 1 µM (PC3 cells; [3]): 14%

Compound: O=C(NCCCn1ccnc1)c1ccc2nc(C3=CCCCC3)c(-c3ccccc3)nc2c1 [Compound I-240, 2-(cyclohex-1-en-1-yl)-N-[3-(1H-imidazol-1-yl)propyl]-3-phenylquinoxaline-6-carboxamide]
- IC50 (hNAMPT protein; [1]): 100 to 500 nM
- inhibition at 1 µM (hNAMPT protein; compound concentration 1 μM): 83%
- inhibition at 1 µM (PC3 cells; [3]): -8%

Compound: COc1ccc(-c2nc3cc(C(=O)NCCCn4ccnc4)ccc3nc2-c2ccccc2)cc1 [Compound I-241, N-[3-(1H-imidazol-1-yl)propyl]-3-(4-methoxyphenyl)-2-phenylquinoxaline-6-carboxamide]
- IC50 (hNAMPT protein; [1]): 500 to 1000 nM
- inhibition at 1 µM (hNAMPT protein; compound concentration 1 μM): 57%
- inhibition at 1 µM (PC3 cells; [3]): 1%

Compound: O=C(NCCCn1ccnc1)c1ccc2nc(-c3cncnc3)c(-c3ccccc3)nc2c1 [Compound I-242, N-[3-(1H-imidazol-1-yl)propyl]-3-phenyl-2-(pyrimidin-5-yl)quinoxaline-6-carboxamide]
- IC50 (hNAMPT protein; [1]): 1000 to 2000 nM
- inhibition at 1 µM (hNAMPT protein; compound concentration 1 μM): 45%
- inhibition at 1 µM (PC3 cells; [3]): -7%

Compound: O=C(NCCCn1ccnc1)c1ccc2nc(N3CCC4(COC4)C3)c(-c3ccccc3)nc2c1 [Compound I-243, N-[3-(1H-imidazol-1-yl)propyl]-2-(2-oxa-6-azaspiro[3.4]oct-6-yl)-3-phenylquinoxaline-6-carboxamide]
- IC50 (hNAMPT protein; [1]): 500 to 1000 nM
- inhibition at 1 µM (hNAMPT protein; compound concentration 1 μM): 62%
- inhibition at 1 µM (PC3 cells; [3]): -6%

Compound: O=C(c1ccc2nc(-c3ccc(F)cc3)c(-c3ccc(F)cc3)nc2c1)N1CCc2cn[nH]c2C1 [Compound I-244, [2,3-bis(4-fluorophenyl)quinoxalin-6-yl](1,4,5,7-tetrahydro-6H-pyrazolo[3,4-c]pyridin-6-yl)methanone]
- IC50 (hNAMPT protein; [1]): 2000 to 10000 nM
- inhibition at 1 µM (hNAMPT protein; compound concentration 1 μM): 33%
- inhibition at 1 µM (PC3 cells; [3]): 96%

Compound: COc1cc(OC)cc(-c2nc3cc(C(=O)NCCCn4ccnc4)ccc3nc2-c2ccccc2)c1 [Compound I-245, 3-(3,5-dimethoxyphenyl)-N-[3-(1H-imidazol-1-yl)propyl]-2-phenylquinoxaline-6-carboxamide]
- IC50 (hNAMPT protein; [1]): 500 to 1000 nM
- inhibition at 1 µM (hNAMPT protein; compound concentration 1 μM): 62%
- inhibition at 1 µM (PC3 cells; [3]): -8%

Compound: O=C(NCCCn1ccnc1)c1ccc2nc(-c3cccs3)c(-c3ccccc3)nc2c1 [Compound I-247, N-[3-(1H-imidazol-1-yl)propyl]-3-phenyl-2-(2-thienyl)quinoxaline-6-carboxamide]
- IC50 (hNAMPT protein; [1]): 500 to 1000 nM
- inhibition at 1 µM (hNAMPT protein; compound concentration 1 μM): 58%
- inhibition at 1 µM (PC3 cells; [3]): -5%

Compound: CC(=O)Nc1cccc(-c2nc3cc(C(=O)NCCCn4ccnc4)ccc3nc2-c2ccccc2)c1 [Compound I-248, 3-(3-acetamidophenyl)-N-[3-(1H-imidazol-1-yl)propyl]-2-phenylquinoxaline-6-carboxamide]
- IC50 (hNAMPT protein; [1]): 2000 to 10000 nM
- inhibition at 1 µM (hNAMPT protein; compound concentration 1 μM): 29%
- inhibition at 1 µM (PC3 cells; [3]): 2%
